In patent US20080014149A1, “Methods and Compositions for Imaging and Biomedical Applications” (priority 2004, published 2008):
Like-named read-outs stand apart in the source and are kept apart here.

What was measured:
[1] = R1 and R2 relaxivity from water T1/T2 measurements by NMR; type: physicochemical; settings: for R1: deuterium oxide, Unity-600 MHz, 25±0.1° C.
Protocol: The R2 and R1 of 19a and 18a were calculated to show cleavage of the T2/T1 quenching detectable construct 19a generated a large enough change in R2 to allow for enzyme detection. The compound 19a represents an intact T2/T1 quenching detectable construct and the compound 18a represents a polymeric gadolinium detectable construct remainder resulting from cleavage of the reaction region. The R1 and R2 of 19a and 18a were measured in deuterium oxide in a Unity-600 MHz (Varian, Inc.) at 25±0.1° C. T1 and T2 measurements of water relaxation times were measured at various concentrations of 19a and 18a, and a plot of 1/T1 and 1/T2 was made against the concentration; the relaxivities R1 and R2 were determined by the slope of this graph using equation 1 (Caravan 1991), [formula] where 1/T1 is the relaxation rate of the water proton induced by the paramagnetic and diamagnetic species present in solution, and 1/T1 (diamagnetic) is the relaxation rate in the absence of the paramagnetic species. R1 and R2 of 18a were calculated to be 3.34 mM^−1s^− and 6.8 mM^−1s^−1 and the R1 and R2 of 19a were 4.0 mM^−1s^−1 and 21.77 mM^−1s^−1 (see FIG. 19).

[2] = Imaging DTT with 19b and 25 in agarose gels (MRI); settings: 0.5 mM in 2% agarose hydrogels, 50 mM DTT, vials filled with PBS
Protocol: The T2/T1 quenching detectable constructs 19b and 25 are loaded into 2% agarose hydrogels at a concentration of 0.5 mM. The hydrogels have a volume of 0.5 ml and are made in 10 ml scintillation vials. After the hydrogels form, the vials are filled with PBS buffer, pH 7.4, and then imaged in either a 9.4 Tesla MRI machine or a 17.8 Tesla MRI machine (University of Florida). The best TR/TE parameters are selected from calculations using the spin-echo signal equation with respect to the relaxation times and the TR/TE. The TE and TR are chosen such that the signal intensity of the hydrogels loaded with 19b and 25 is lower than or equal to pure agarose hydrogels. These calculations are based on the R1 and R2 of 19b and 25. DTT is added to the scintillation vials to generate a 50 mM concentration of DTT in the vials. The control hydrogels for this experiment consist of hydrogels that contain 50 mM DTT, without 19b or 25. The signal intensity of the gels is measured every hour for 48 hours. The T1 and the T2 of the gels is measured every hour, the T1 is measured using an inversion recovery sequence, for which the sequence parameters will be selected based on the values of R1 and R2 of 19b and 25. The T2 will be measured using a Carr-Purcell-Meiboom-Gill (CPMG) sequence with TEs chosen from the values of R2 for 19b and 25 (Haacke 1999).

[3] = Water exchange rate of dysprosium chelate; type: physicochemical
Source text: This is a derivative form of DTPA. The chelator molecule of this example is considered a modification of the detectable detectable agent, wherein the chelator molecule has substitutions. The R2 of dysprosium chelates is inversely proportional to the water exchange rate, particularly for macromolecular dysprosium chelates at high field strengths (Vander 2002 and Caravan 2001) The dysprosium chelate detectable construct remainder in 25 has a greater R2 than the dysprosium chelate detectable construct remainder in 19b and also generates a larger change in tissue T2 after cleavage and diffusion away from the polymeric gadolinium detectable construct remainder. The R1 and R2 of 25 is determined using a 600 MHz NMR machine as described in Example 2.

[4] = Imaging DTT with 33 in agarose hydrogels (MRI); settings: vials not filled with buffer
Protocol: An experimental procedure similar to that outlined in Example 4 is used to image DTT, except that the hydrogels are loaded with compound 33. The scintillation vials which contain the gels are not filled with buffer. This ensured that the cleaved dysprosium remains in the gel and that changes in T2 and signal intensity are due to changes in the rotational correlation time of dysprosium. The DTT is directly added to hydrogels as a concentrated solution. The gels are analyzed in a manner similar to Example 4. The control for this experiment is agarose hydrogels that just contain DTT. […] Problems with synthesis of 33 due to its high polydispersity may result from the free radical polymerization used to generate 28. This problem can be solved by using atom transfer radical polymerization (ATRP) to synthesize 28, using a protected methacrylic acid monomer and an (ATRP) initiator with a functional handle.

[5] = test system: T1, PEG-Peptide-DTPA-Dy containing MMP-7 substrate peptide-DTPA
T1 sequence: RPLALWRSGCG

[6] = Diffusion coefficient in water (literature); type: physicochemical
Source text: Another example of a detectable construct of the present invention is shown in FIG. 15, wherein the detectable construct comprises a first detectable agent, comprising a metal ion and a chelator, covalently bonded to a linking region comprising PEG(polyethylene glycol) MW 80 kD, which is covalently bonded to a reaction region that is a substrate that can be cleaved by an enzyme or chemical process, which is covalently bonded to a second detectable agent comprising a chelator and a metal ion. In this particular example, the first detectable agent is Gadolinium associated with the chelator DTPA, and the second detectable agent is Dysprosium associated with the chelator DTPA. This detectable construct can be used in a method based upon the counteracting effects of T1 and T2 contrast agents on MRI signal intensity. Gadolinium is the T1 contrast agent and dysprosium is the T2 contrast agent. The dysprosium detectable agent is connected to the PEG chain through a cleavable linkage, such as a disulfide bond or an enzyme cleavable peptide linkage. Cleavage of 3a generates a low molecular weight dysprosium detectable construct remainder (4) and a high molecular weight PEG gadolinium detectable construct remainder. […]
At present, tumors can only be detected after they reach mm-cm dimensions. […]

[7] = in water, cited from earlier work
MMP-9 = MMP-9 (Homo sapiens, UniProt P14780); experiment: Imaging MMP-9 with 40 and 42 in agarose gels (MRI); type: biochemical; settings: agarose hydrogels
MMP-9, sequence (P14780 94-707, species assumed): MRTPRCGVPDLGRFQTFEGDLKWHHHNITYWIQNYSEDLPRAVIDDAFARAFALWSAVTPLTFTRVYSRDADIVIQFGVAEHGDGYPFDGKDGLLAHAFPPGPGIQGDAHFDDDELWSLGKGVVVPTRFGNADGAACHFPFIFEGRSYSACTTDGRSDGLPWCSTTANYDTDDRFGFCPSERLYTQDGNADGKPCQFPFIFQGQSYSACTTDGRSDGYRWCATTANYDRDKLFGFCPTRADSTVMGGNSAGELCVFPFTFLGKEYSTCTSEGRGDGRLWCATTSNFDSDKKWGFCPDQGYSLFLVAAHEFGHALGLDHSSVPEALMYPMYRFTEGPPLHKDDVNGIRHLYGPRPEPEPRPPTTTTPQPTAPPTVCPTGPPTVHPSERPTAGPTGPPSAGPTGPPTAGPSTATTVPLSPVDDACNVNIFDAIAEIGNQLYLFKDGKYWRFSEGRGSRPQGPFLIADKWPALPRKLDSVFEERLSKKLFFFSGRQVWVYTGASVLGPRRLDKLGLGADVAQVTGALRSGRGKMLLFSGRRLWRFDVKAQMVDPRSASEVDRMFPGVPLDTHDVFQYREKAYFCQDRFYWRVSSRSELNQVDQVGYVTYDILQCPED

[8] = test system: MMP-7 expressing SW480mat xenograft tumors; experiment: In vivo imaging of MMP-7 activity in mouse xenograft tumors (MRI); design: species or system athymic nude mice; settings: expectation; mice with MMP-7 expressing tumors, 9.4 Tesla
Source text: MMP-7 activity is imaged in athymic nude mice which have been given MMP-7 expressing xenograft tumors, using the T2/T1 quenching detectable construct, gadolinium-PEG-RPLALWRSC-dysprosium (46, FIG. 26). This compound contains a reaction region that is the MMP-7 cleavage site, RPLALWRSC, (SEQ ID NO: 2). […] See FIG. 26 for the synthesis of 46.
The resulting tumors are allowed to grow up to a size of 1-2 cm (4-6 weeks). During this period, the mice are imaged at various times points ranging from 3 days to 6 weeks after the injection of the tumor cells, according to the following procedure: after proper anesthetization, a catheter is inserted into the tail vein of the mice, a composition comprising the detectable construct 46 is injected through the catheter and the mice are imaged every hour for 24 hours in a 9.4 Tesla MRI machine (Emory University), measuring the MRI signal intensity, tissue T1 and tissue T2.
The signal intensity and T2 of the MMP-7 expressing tumors is compared against the control tumors. If the signal intensity of the MMP-7 expressing tumors is greater than the controls, then MMP-7 successfully cleaved 46, resulting in an increase in MRJ signal intensity and the imaging of MMP-7. Furthermore, data is obtained relating to the sensitivity of the method to image early tumor activity, as well as ratiometric information relating to tumor growth.

[9] = test system: trypsin Dy only detectable construct (cleavable PEG-peptide-dysprosium, FIG. 24)
[10] = listed as DTPA-Dy detectable construct remainder

Gadolinium-PEG-S—S-Dysprosium [Compound 19a]
decrease in R1 between 19a and 18a ([1]; 19a versus 18a): 16.5%
R1 [1]: 4.0 mM⁻¹ s⁻¹

Gadolinium-PEG-S—S-Dysprosium [Compound 19b]
MRI signal intensity of agarose gels after addition of DTT [2]: increases the signal intensity

Gadolinium-PEG-S—S-Dysprosium-Diamide [Compound 25]
water exchange rate τm, times lower than the dysprosium chelate in 19b [3]: 34 times
MRI signal intensity of agarose gels after addition of DTT [2]: increases the signal intensity

Gadolinium-Poly(Methacrylic Acid)-PEG-S—S-Dysprosium [Compound 33]
MRI signal intensity of agarose gels after addition of DTT [4]: increases the signal intensity

MMP-7
T2 signal (NMR in D2O buffer, 37 C, 4.5 hours) [5]: upon treatment of micelles with MMP-7 that the T2 signal increase by over two-fold

Thiol-PEG-DTPA-Gd [Compound 18a]
R1 [1]: 3.34 mM⁻¹ s⁻¹

dysprosium-diethylenetriaminepentaacetic (DTPA) [DTPA-dysprosium]
ratio of diffusion coefficient to that of PEG 80 kD [6]: 17 fold
ratio of diffusion coefficient to that of PEG 80 kD [6, 10]: roughly 17 fold
diffusion coefficient Dwater [7]: 3.8×10^−6 cm^2/s
diffusion coefficient Dwater [7, 10]: approximately 3.8×10^−6 cm^2/s

gadolinium-PEG-Pro-Val-Gly-Leu-Ile-Gly-dysprosium [Compound 40]
MRI signal intensity on cleavage by MMP-9 (MMP-9): increase in signal intensity

gadolinium-PEG-RPLALWRSC-dysprosium [Compound 46]
MRI signal intensity on cleavage by MMP-7 [8]: increase in MRI signal intensity

gadolinium-poly(methacrylic acid)-Pro-Val-Gly-Leu-Ile-Gly-dysprosium [Compound 42]
MRI signal intensity on cleavage by MMP-9 (MMP-9): increased signal intensity

trypsin
water T2 (400 MHz NMR in D2O), construct 16 mg/ml, trypsin 0.025 mg/ml [9]: After adding trypsin, T2 increases by 52.3%
